Assay results from US9340590B2 (priority 2011, dated 2016).
Where two headings read alike, the source gives them in different places. Positions of bridges follow the written chain, without caps; N, C: chain ends. Non-standard residues stand in square brackets, D forms with d. Residues, ends and D or L forms follow the SMILES beside them. 1Nal = N[C@@H](Cc1cccc2ccccc12)C(=O)O

Assays:
Test in all cases: cell-based
hNav1.5 = hNav1.5 (Homo sapiens, UniProt Q14524)
hNav1.7 = hNav1.7 (Homo sapiens, UniProt Q15858); assay type: cell-based
hNav1.3 = hNav1.3 (Homo sapiens, UniProt Q9NY46); conditions: IonWorks Quattro, read-out: IWQ Use Nav1.3
[1] = IonWorks Quattro, use-dependent block, hNav1.5, read-out: IWQ Use Nav1.5
[2] = IonWorks Quattro, use-dependent block, hNav1.7, read-out: IWQ Use Nav1.7

hNav1.7, sequence (Q15858 whole entry, looked up): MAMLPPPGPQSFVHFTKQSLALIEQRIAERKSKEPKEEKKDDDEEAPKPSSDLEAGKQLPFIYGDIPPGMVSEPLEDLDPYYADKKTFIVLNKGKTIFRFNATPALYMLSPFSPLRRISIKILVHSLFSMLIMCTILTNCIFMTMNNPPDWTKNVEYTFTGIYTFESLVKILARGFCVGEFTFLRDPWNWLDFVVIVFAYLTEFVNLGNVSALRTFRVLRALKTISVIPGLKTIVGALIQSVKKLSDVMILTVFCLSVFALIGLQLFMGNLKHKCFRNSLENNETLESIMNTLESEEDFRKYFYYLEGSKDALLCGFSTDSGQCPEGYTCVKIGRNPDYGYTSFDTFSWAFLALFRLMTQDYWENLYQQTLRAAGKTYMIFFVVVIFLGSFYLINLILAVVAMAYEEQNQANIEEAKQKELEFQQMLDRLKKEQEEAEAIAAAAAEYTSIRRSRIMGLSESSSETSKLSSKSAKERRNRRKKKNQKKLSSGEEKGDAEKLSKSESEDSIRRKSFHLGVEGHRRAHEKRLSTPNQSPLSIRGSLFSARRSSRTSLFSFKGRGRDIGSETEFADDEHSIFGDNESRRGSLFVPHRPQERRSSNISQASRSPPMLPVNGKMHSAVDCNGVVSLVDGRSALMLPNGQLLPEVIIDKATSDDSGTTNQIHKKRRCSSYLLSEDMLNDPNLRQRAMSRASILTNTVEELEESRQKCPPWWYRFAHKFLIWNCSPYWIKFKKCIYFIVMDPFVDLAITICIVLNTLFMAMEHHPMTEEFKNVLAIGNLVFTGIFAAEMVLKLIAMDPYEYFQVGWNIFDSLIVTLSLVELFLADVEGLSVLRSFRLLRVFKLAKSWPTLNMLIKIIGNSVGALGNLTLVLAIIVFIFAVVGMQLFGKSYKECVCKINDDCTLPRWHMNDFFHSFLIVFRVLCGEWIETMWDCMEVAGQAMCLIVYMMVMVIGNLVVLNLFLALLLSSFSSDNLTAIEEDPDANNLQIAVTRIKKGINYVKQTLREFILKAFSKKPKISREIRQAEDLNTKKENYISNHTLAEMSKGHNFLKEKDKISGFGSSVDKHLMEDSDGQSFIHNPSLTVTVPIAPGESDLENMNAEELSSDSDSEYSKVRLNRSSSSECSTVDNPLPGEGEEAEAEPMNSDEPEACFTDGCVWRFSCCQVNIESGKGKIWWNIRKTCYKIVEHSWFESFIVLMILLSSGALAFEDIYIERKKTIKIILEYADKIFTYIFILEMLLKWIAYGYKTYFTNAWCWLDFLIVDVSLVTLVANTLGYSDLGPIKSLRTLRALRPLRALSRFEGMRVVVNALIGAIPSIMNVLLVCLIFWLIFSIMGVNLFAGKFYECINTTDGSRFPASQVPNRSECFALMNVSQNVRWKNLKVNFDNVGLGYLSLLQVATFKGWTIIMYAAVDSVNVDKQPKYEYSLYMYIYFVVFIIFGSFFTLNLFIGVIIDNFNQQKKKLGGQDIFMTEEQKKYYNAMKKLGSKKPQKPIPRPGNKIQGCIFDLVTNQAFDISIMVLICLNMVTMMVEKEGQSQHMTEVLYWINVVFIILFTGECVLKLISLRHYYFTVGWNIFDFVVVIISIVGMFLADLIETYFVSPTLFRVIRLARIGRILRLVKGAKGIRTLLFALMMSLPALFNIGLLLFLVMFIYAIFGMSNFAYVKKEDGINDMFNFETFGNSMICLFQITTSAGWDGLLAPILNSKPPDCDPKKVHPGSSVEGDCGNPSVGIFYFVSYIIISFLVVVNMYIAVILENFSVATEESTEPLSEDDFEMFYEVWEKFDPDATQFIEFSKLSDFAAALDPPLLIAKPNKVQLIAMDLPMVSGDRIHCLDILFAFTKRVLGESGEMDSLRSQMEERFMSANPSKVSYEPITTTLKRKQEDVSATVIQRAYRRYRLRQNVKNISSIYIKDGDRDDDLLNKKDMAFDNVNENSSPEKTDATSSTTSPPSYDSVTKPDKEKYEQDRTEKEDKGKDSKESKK
hNav1.3, sequence (Q9NY46 whole entry, looked up): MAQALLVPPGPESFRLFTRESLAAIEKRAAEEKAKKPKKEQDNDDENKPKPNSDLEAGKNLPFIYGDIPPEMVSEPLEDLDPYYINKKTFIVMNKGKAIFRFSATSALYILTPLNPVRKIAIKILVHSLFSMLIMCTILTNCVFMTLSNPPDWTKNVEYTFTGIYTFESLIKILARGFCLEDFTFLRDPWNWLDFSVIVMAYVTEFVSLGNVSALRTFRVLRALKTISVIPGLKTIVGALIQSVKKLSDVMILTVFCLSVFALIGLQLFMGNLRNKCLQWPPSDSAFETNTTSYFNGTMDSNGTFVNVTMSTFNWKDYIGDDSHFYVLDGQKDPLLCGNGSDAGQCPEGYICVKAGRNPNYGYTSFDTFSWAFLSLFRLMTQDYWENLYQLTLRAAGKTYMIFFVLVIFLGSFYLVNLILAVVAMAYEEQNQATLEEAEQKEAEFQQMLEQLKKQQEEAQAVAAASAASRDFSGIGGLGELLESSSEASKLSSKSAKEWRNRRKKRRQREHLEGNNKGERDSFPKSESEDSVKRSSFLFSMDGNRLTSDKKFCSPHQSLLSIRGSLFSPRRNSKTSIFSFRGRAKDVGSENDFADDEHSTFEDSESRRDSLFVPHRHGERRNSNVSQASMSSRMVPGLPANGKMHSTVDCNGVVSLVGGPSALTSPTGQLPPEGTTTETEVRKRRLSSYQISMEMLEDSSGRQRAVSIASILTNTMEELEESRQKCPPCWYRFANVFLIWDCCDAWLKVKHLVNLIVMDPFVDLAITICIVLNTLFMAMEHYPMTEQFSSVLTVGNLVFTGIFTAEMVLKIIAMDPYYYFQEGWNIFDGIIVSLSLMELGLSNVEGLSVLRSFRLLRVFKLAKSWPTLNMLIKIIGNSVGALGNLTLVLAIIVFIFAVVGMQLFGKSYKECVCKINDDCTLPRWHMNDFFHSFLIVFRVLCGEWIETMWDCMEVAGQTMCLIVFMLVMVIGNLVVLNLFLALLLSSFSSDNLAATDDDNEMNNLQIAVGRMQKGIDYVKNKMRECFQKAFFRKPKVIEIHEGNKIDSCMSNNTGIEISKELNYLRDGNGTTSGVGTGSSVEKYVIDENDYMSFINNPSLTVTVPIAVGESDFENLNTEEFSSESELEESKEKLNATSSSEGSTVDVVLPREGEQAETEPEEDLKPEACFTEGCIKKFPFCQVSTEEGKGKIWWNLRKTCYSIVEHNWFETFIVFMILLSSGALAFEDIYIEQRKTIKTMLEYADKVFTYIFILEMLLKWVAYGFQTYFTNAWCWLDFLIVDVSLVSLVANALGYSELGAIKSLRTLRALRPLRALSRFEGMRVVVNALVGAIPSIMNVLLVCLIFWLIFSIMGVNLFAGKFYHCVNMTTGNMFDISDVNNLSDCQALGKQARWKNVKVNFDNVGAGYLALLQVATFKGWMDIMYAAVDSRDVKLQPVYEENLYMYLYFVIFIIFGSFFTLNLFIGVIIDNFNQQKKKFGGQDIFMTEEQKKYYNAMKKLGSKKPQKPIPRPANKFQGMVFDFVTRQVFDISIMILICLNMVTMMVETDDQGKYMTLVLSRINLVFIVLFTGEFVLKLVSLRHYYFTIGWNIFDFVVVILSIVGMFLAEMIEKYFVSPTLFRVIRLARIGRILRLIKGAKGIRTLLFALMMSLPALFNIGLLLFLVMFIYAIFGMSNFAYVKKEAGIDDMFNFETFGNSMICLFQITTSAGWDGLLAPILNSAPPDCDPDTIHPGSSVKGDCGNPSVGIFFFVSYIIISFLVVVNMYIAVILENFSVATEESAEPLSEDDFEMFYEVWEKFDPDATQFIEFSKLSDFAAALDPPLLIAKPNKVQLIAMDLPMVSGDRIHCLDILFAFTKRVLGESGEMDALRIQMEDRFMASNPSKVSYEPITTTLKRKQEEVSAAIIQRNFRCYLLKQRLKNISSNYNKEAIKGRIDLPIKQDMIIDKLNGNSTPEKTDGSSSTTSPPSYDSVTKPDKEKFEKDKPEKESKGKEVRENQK

Row | SMILES | IC50 (hNav1.5; [1]) | IC50 (hNav1.7; [2]) | IC50 (hNav1.3; use-dependent block, hNav1.3) | further results
1 | CC[C@H](C)[C@@H]1NC(=O)[C@@H]2CSSC[C@@H]3NC(=O)[C@H](C(C)C)NC(=O)[C@H](CC(C)C)NC(=O)[C@H](CC(N)=O)NC(=O)[C@@H]4CCCN4C(=O)[C@H](CCCNC(=N)N)NC(=O)[C@H](CSSC[C@H](NC(=O)[C@@H](N)CC(=O)O)C(=O)N[C@@H](CC(C)C)C(=O)NCC(=O)N[C@@H](Cc4ccccc4)C(=O)N[C@@H](CCSC)C(=O)N[C@@H](CCCNC(=N)N)C(=O)N[C@@H](CCCCN)C(=O)N2)NC(=O)[C@H](CSSC[C@@H](C(=O)N[C@@H](CCCCN)C(=O)N[C@@H](Cc2ccc(O)cc2)C(=O)N[C@H](C(=O)N[C@@H](Cc2ccccc2)C(N)=O)C(C)C)NC(=O)[C@H](Cc2c[nH]c4ccccc24)NC(=O)[C@H](CCCCN)NC(=O)[C@H](Cc2cnc[nH]2)NC(=O)[C@H]([C@@H](C)O)NC(=O)[C@H](C)NC(=O)[C@H](CO)NC3=O)NC(=O)[C@H](CCCCN)NC(=O)[C@H](CC(=O)O)NC(=O)[C@H](CC(N)=O)NC(=O)[C@H](CC(=O)O)NC(=O)[C@@H]2CCCN2C1=O [compound 9] (H-DCLGFMRKCIPDNDKCCRPNLVCSATHKWCKYVF-NH2; disulfide 2-17, 9-23, 16-30) | – | – | – | IC50 (hNav1.5; IonWorks Quattro, Use, read-out: IWQ Use Nav1.5): 18.8 µM; IC50 (hNav1.7): 300 nM; IC50 (hNav1.3; Use): 840 nM
2 | CC[C@H](C)[C@@H]1NC(=O)[C@@H]2CSSC[C@@H]3NC(=O)[C@H](C(C)C)NC(=O)[C@H](CC(C)C)NC(=O)[C@H](CC(N)=O)NC(=O)[C@@H]4CCCN4C(=O)[C@H](CCCNC(=N)N)NC(=O)[C@H](CSSC[C@H](NC(=O)[C@@H](N)CC(=O)O)C(=O)N[C@@H](CC(C)C)C(=O)NCC(=O)N[C@@H](C)C(=O)N[C@@H](CCSC)C(=O)N[C@@H](CCCNC(=N)N)C(=O)N[C@@H](CCCCN)C(=O)N2)NC(=O)[C@H](CSSC[C@@H](C(=O)N[C@@H](CCCCN)C(=O)N[C@@H](Cc2ccc(O)cc2)C(=O)N[C@H](C(=O)N[C@@H](Cc2ccccc2)C(N)=O)C(C)C)NC(=O)[C@H](Cc2c[nH]c4ccccc24)NC(=O)[C@H](CCC(N)=O)NC(=O)[C@H](Cc2c[nH]cn2)NC(=O)[C@H]([C@@H](C)O)NC(=O)[C@H](CCCNC(=N)N)NC(=O)[C@H](CO)NC3=O)NC(=O)[C@H](CCCCN)NC(=O)[C@H](CC(=O)O)NC(=O)[C@H](CC(N)=O)NC(=O)[C@H](CC(=O)O)NC(=O)[C@@H]2CCCN2C1=O [compound 739] (H-DCLGAMRKCIPDNDKCCRPNLVCSRTHQWCKYVF-NH2; disulfide 2-17, 9-23, 16-30) | 20.5 µM | 630 nM | 2200 nM | –
3 | CC[C@H](C)[C@@H]1NC(=O)[C@@H]2CSSC[C@@H]3NC(=O)[C@H](C(C)C)NC(=O)[C@H](CC(C)C)NC(=O)[C@H](CC(N)=O)NC(=O)[C@@H]4CCCN4C(=O)[C@H](CCCNC(=N)N)NC(=O)[C@H](CSSC[C@H](NC(=O)[C@H](CC(=O)O)NC(=O)[C@@H](N)CCC(=O)O)C(=O)N[C@@H](CC(C)C)C(=O)NCC(=O)N[C@@H](Cc4ccccc4)C(=O)N[C@@H](CCSC)C(=O)N[C@@H](CCCNC(=N)N)C(=O)N[C@@H](CCCCN)C(=O)N2)NC(=O)[C@H](CSSC[C@@H](C(=O)N[C@@H](CCCCN)C(=O)N[C@@H](Cc2ccc(O)cc2)C(=O)N[C@H](C(=O)N[C@@H](Cc2ccccc2)C(N)=O)C(C)C)NC(=O)[C@H](Cc2c[nH]c4ccccc24)NC(=O)[C@H](CCCCN)NC(=O)[C@H](Cc2cnc[nH]2)NC(=O)[C@H]([C@@H](C)O)NC(=O)[C@H](CCCNC(=N)N)NC(=O)[C@H](CO)NC3=O)NC(=O)[C@H](CCCCN)NC(=O)[C@H](CC(=O)O)NC(=O)[C@H](CC(N)=O)NC(=O)[C@H](CC(=O)O)NC(=O)[C@@H]2CCCN2C1=O [SEQ ID NO: 17] | – | – | – | IC50 (hNav1.5; IWQ Use Nav1.5): 12.8 µM; IC50 (hNav1.7): 260 nM; IC50 (hNav1.3; clamped to −110 mV, depolarized to −10 mV, 5 min after compound, n=2): 190 nM
4 | CC[C@H](C)[C@@H]1NC(=O)[C@@H]2CSSC[C@@H]3NC(=O)[C@H](C(C)C)NC(=O)[C@H](CC(C)C)NC(=O)[C@H](CC(N)=O)NC(=O)[C@@H]4CCCN4C(=O)[C@H](CCCNC(=N)N)NC(=O)[C@H](CSSC[C@H](NC(=O)[C@@H](N)CC(=O)O)C(=O)N[C@@H](CC(C)C)C(=O)NCC(=O)N[C@@H](C)C(=O)N[C@@H](Cc4ccccc4)C(=O)N[C@@H](CCCNC(=N)N)C(=O)N[C@@H](CCCCN)C(=O)N2)NC(=O)[C@H](CSSC[C@@H](C(=O)N[C@@H](CCCCN)C(=O)N[C@@H](Cc2ccc(O)cc2)C(=O)N[C@H](C(=O)N[C@@H](Cc2ccccc2)C(=O)O)C(C)C)NC(=O)[C@H](Cc2c[nH]c4ccccc24)NC(=O)[C@H](CCCNC(=N)N)NC(=O)[C@H](Cc2c[nH]cn2)NC(=O)[C@H]([C@@H](C)O)NC(=O)[C@H](CCCNC(=N)N)NC(=O)[C@H](CO)NC3=O)NC(=O)[C@H](CCCCN)NC(=O)[C@H](CC(=O)O)NC(=O)[C@H](Cc2c[nH]cn2)NC(=O)[C@H](CC(=O)O)NC(=O)[C@@H]2CCCN2C1=O [compound 841] | > 5 µM | > 5000 nM | > 5000 nM | –
5 | CC[C@H](C)[C@@H]1NC(=O)[C@@H]2CSSC[C@@H]3NC(=O)[C@H](C(C)C)NC(=O)[C@H](CC(C)C)NC(=O)[C@H](CC(N)=O)NC(=O)[C@@H]4CCCN4C(=O)[C@H](CCCNC(=N)N)NC(=O)[C@H](CSSC[C@H](NC(=O)[C@@H](N)CC(=O)O)C(=O)N[C@@H](CC(C)C)C(=O)NCC(=O)N[C@@H](Cc4ccccc4)C(=O)N[C@@H](CCSC)C(=O)N[C@@H](CCCNC(=N)N)C(=O)N[C@@H](CCCCN)C(=O)N2)NC(=O)[C@H](CSSC[C@@H](C(=O)N[C@@H](CCCCN)C(=O)N[C@@H](Cc2ccc(O)cc2)C(=O)N[C@H](C(=O)N[C@@H](Cc2ccccc2)C(N)=O)C(C)C)NC(=O)[C@H](Cc2c[nH]c4ccccc24)NC(=O)[C@H](CCCCN)NC(=O)[C@H](Cc2cnc[nH]2)NC(=O)[C@H](CCC(=O)O)NC(=O)[C@H](CCCNC(=N)N)NC(=O)[C@H](CO)NC3=O)NC(=O)[C@H](CCCCN)NC(=O)[C@H](CC(=O)O)NC(=O)[C@H](CC(N)=O)NC(=O)[C@H](CC(=O)O)NC(=O)[C@@H]2CCCN2C1=O [SEQ ID NO: 152, [Glu26]GpTx-1] (H-DCLGFMRKCIPDNDKCCRPNLVCSREHKWCKYVF-NH2; disulfide 2-17, 9-23, 16-30) | – | – | – | IC50 (hNav1.5; IWQ Use Nav1.5 (μM)): 17.2 µM; IC50 (hNav1.7; Table 22, IonWorks Quattro, use, […], read-out: IWQ Use Nav1.7): 680 nM; IC50 (hNav1.3; Table 22, use, […]): 710 nM
6 | CC[C@H](C)[C@@H]1NC(=O)[C@@H]2CSSC[C@@H]3NC(=O)[C@H](C(C)C)NC(=O)[C@H](CC(C)C)NC(=O)[C@H](CC(N)=O)NC(=O)[C@@H]4CCCN4C(=O)[C@H](CCCNC(=N)N)NC(=O)[C@H](CSSC[C@H](NC(=O)[C@@H](N)CC(=O)O)C(=O)N[C@@H](CC(C)C)C(=O)NCC(=O)N[C@@H](C)C(=O)N[C@@H](CCSC)C(=O)N[C@@H](CCCNC(=N)N)C(=O)N[C@@H](CCCCN)C(=O)N2)NC(=O)[C@H](CSSC[C@@H](C(=O)N[C@@H](CCC(=O)O)C(=O)N[C@@H](Cc2ccc(O)cc2)C(=O)N[C@H](C(=O)N[C@@H](Cc2ccccc2)C(N)=O)C(C)C)NC(=O)[C@H](Cc2c[nH]c4ccccc24)NC(=O)[C@H](CCCCN)NC(=O)[C@H](Cc2c[nH]cn2)NC(=O)[C@H]([C@@H](C)O)NC(=O)[C@H](CCCNC(=N)N)NC(=O)[C@H](CO)NC3=O)NC(=O)[C@H](CCCCN)NC(=O)[C@H](CC(=O)O)NC(=O)[C@H](CC(N)=O)NC(=O)[C@H](CC(=O)O)NC(=O)[C@@H]2CCCN2C1=O [compound 789] (H-DCLGAMRKCIPDNDKCCRPNLVCSRTHKWCEYVF-NH2; disulfide 2-17, 9-23, 16-30) | 31.8 µM | > 5000 nM | > 5000 nM | –
7 | CC[C@H](C)[C@@H]1NC(=O)[C@@H]2CSSC[C@@H]3NC(=O)[C@H](C(C)C)NC(=O)[C@H](CC(C)C)NC(=O)[C@H](CC(N)=O)NC(=O)[C@@H]4CCCN4C(=O)[C@H](CCCNC(=N)N)NC(=O)[C@H](CSSC[C@H](NC(=O)[C@@H](N)CC(=O)O)C(=O)N[C@@H](CC(C)C)C(=O)NCC(=O)N[C@@H](Cc4ccccc4)C(=O)N[C@@H](CCSC)C(=O)N[C@@H](CCCNC(=N)N)C(=O)N[C@@H](CCCCN)C(=O)N2)NC(=O)[C@H](CSSC[C@@H](C(=O)N[C@@H](CCCCN)C(=O)N[C@@H](CCCCN)C(=O)N[C@H](C(=O)N[C@@H](Cc2cccc4ccccc24)C(=O)N[C@@H](Cc2c[nH]c4ccccc24)C(N)=O)C(C)C)NC(=O)[C@H](Cc2c[nH]c4ccccc24)NC(=O)[C@H](CCCCN)NC(=O)[C@H](Cc2c[nH]cn2)NC(=O)[C@H]([C@@H](C)O)NC(=O)[C@H](CCCNC(=N)N)NC(=O)[C@H](CO)NC3=O)NC(=O)[C@H](CCCCN)NC(=O)[C@H](CC(=O)O)NC(=O)[C@H](CC(N)=O)NC(=O)[C@H](CC(=O)O)NC(=O)[C@@H]2CCCN2C1=O [compound 99] (H-DCLGFMRKCIPDNDKCCRPNLVCSRTHKWCKKV[1Nal]W-NH2; disulfide 2-17, 9-23, 16-30) | 9.14 µM | 110 nM | 160 nM | –
